SMILES strings stand for the structures. Read-outs that look alike come from different tables or passages of the source.

Experimental findings from patent US20230203058A1, “MACROCYCLIC DIAMINE DERIVATIVES AS ENT INHIBITORS FOR THE TREATMENT OF CANCERS, AND COMBINATION THEREOF WITH ADENOSINE RECEPTOR ANTAGONISTS” (ITEOS BELGIUM SA, priority 2020, published 2023) are described below.

One assay has as its target T1, human ENT1 (Homo sapiens, UniProt Q99808).
T1 sequence (Q99808 1-456): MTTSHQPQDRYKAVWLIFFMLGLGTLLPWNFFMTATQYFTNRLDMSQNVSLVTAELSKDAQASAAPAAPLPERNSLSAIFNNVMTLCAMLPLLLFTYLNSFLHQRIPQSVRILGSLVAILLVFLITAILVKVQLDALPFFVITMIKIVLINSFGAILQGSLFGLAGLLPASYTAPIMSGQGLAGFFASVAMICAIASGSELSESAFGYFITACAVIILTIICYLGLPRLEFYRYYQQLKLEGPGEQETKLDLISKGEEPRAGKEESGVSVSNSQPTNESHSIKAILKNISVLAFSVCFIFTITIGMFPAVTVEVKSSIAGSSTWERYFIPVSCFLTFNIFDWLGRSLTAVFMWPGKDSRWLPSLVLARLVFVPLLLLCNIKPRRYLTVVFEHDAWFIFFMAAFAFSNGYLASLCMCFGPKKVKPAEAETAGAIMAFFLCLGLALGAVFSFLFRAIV
Kind of assay: ENT1 binding assay (competition with Sahenta-DY647 on JAR cells). On the set-up: JAR cells expressing ENT1 were bought from ATCC® (HTB-144TM); host or cells: JAR cells (human choriocarcinoma line; whole cells). The settings on record: competition with Sahenta-DY647 100 nM, 4° C. A digest of the protocol:
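Competition binding on intact JAR cells (50000 per well) in HBSS with 10 mM Hepes and 0.1% BSA. Cells pre-incubated with compound 30 min at 4 °C, then Sahenta-DY647 added at its IC90 (100 nM) for another 30 min at 4 °C; after washing, fluorescence read at Ex 630/Em 670 nm.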

The next assay concerns human T cells. Kind of assay: T cell stimulation assay (Example III, FIG. 1). It counts as cell-based. The settings on record: ATP 100 µM. On the procedure:
FIG. 1A depicts a graph of log concentration (M) versus percent proliferation. Purified human T cells were activated with anti-CD3/CD28 dynabeads in the presence of ATP (100 µM) as a source of adenosine for 96 h and then proliferation was assessed by CFSE dilution.
FIG. 1B depicts a graph of log concentration of ENT1 inhibitor (M) versus percent proliferation. Experiment performed as in FIG. A with the addition of HSA and AAG to the culture medium (final concentration 2 and 0.1%, respectively).
Peripheral blood mononuclear cells (PBMCs) were first isolated via centrifugation of fresh whole blood over Lymphoprep using SepMate-50 tubes (both from […] Technologies) according to the manufacturer’s instructions. Human T cells were then isolated from the PBMCs using the EasySep Human T cell Isolation Kit ([…] Technologies) according to the manufacturer’s instructions and the cells were cryopreserved in FBS with 10% DMSO until required.
Cryopreserved human T cells were thawed on the day of the experiment and resuspended in PBS with 10% FBS at approximately 1 × 10^7 cells/ml. This cell suspension was diluted 1:1 with 2 µM CFSE solution (ThermoFisher Scientific) in PBS and incubated for 5 minutes at room temperature. The labelling reaction was quenched by further addition of PBS with 10% FBS, and then the cells were washed into X-VIVO15 medium (Lonza) for use in the T cell assay.
CFSE-labelled T cells were plated at 2 × 10^4 cells per well in 384 well plates in the presence of ATP (100 µM, Sigma-Aldrich) as a source of adenosine. Activation was driven by the addition of Dynabeads Human T-Activator CD3/CD28 (ThermoFisher Scientific) at a ratio of 0,5 beads per T cell. ENT1 inhibitor molecules including the reference molecule dilazep (Tocris Bioscience) were added, the volume of the wells was adjusted to 50 µl with X-VIVO15 medium and the plates were cultured in a humidified incubator for 96 h at 37° C. with 5% CO2. In some experiments the culture was supplemented with human serum albumin (HSA) and alpha-1-acid glycoprotein (AAG, both Sigma-Aldrich) at final concentrations of 2 and 0,1%, respectively.
Analysis of proliferation via CSFE dilution was performed by flow cytometry using a BD LSR Fortessa with data analysis on FlowJo (BD Biosciences).

Setting [1] is: anti-CD3/CD28 dynabeads, 96 h (FIG. 1A), read-out: IC50 of restoration of T cell proliferation.
Setting [2] is: with HSA 2% and AAG 0,1% (FIG. 1B), read-out: IC50 of restoration of T cell proliferation under high protein binding conditions.

`COc1cc(C(=O)O[C@H]2CCCOc3cc(cc(OC)c3OC)C(=O)OCCCN3CCCN(CC2)CC3)cc(OC)c1OC` [Compound 2, (12S)-74,75-dimethoxy-6-oxo-5,8-dioxa-1(1,4)-diazepana-7(1,3)-benzenacyclotetradecaphane-12-yl 3,4,5-trimethoxybenzoate]: the results for the IC50 at human ENT1, in the assay on human T cells (setting [1]) and in the assay with human T cells (setting [2]) were 1 to 20 nM, 0.3 nM and 2 nM, respectively.
The matching figures for `COc1cc(C(=O)OC2CCCOc3cc(cc(OC)c3OC)C(=O)N(C)CCCN3CCCN(CC2)CC3)cc(OC)c1OC` (stereo not drawn) [Compound 11, 74,75-dimethoxy-5-methyl-6-oxo-8-oxa-5-aza-1(1,4)-diazepana-7(1,3)-benzenacyclotetradecaphane-12-yl 3,4,5-trimethoxybenzoate]: 1 to 20 nM, 7 nM and 125 nM.
